The nature of one data set: Solubility in water. The class given is physicochemical. As to conditions: even with vigorous heating. The protocol:
Nitrobenzene-appended short peptide 4 was not soluble in water even with vigorous heating. Therefore, NaOH (2 equivalents) was added to deprotonate the carboxylic acid group at the C-terminus of short peptide 4, generating a sodium carboxylate salt with increased solubility in water. The yellow suspension of short peptide 4 was sonicated for 5 minutes after the addition of alkali, resulting is dissolution and formation of a yellow solution.

The subject of data set [1] is E. coli K12. Nature of the data set: Antibacterial activity of NO released from hydrogel 4 under blue light, viable count method. It counts as cell-based, Escherichia coli. The protocol: The antibacterial activity of NO released from hydrogel 4 was investigated in vitro. Initially, a single colony of E. coli K12 was grown in LB broth medium (Sigma-Aldrich) at 37° C. overnight. The resulting bacteria were harvested via centrifugation to obtain a bacteria pallet which was re-suspended in the same volume of LB, twice. The optical density value of the resulting culture was adjusted to 0.1 at 600 nm (10^8 cfu·mL^−1). This bacteria solution was then further adjusted to 3×10^4 cfu·mL^−1.
Hydrogel 4 was prepared at 1% w/v in two different vials. The first vial (vial a) contained hydrogel 4 which will be exposed to blue light. Meanwhile vial b contained hydrogel 4, which will be covered using aluminium foil during the entire experiment. Furthermore, on top of these pre-formed hydrogels, 1 mL of bacteria solution was carefully cast. A vial c that contained only 1 mL of bacteria solution was also prepared. Subsequently, vial a and vial c were irradiated using blue light (440-450 nm). As a negative control, a bacteria solution in the absence of hydrogel and blue light was used in this experiment. After 2 hours, 100 μL of bacteria solution in each vial was taken and subjected to serial dilution using PBS. 20 μL of each dilution were carefully transferred into nutrient agar plates and incubated for another 18 hours. The following day, bacterial growth inhibition were quantified using viable count method. The experiment was performed twice in triplicate and multiple sample comparison was performed using one-way ANOVA at p<0.05.
Bacterial culture (1 mL containing 3×10^4 CFU) was carefully placed on top of hydrogel 4, followed by irradiation of blue light for 1 hour. The viability of bacteria after being exposed to blue light was calculated via the viable count method as illustrated in FIG. 15.
Hydrogel 4, by itself, might exert activity against E. coli. Therefore, the antibacterial activity of hydrogel 4 in the absence of blue light was also determined in a control experiment. […]

Data set [2] concerns E. coli K12. The data set is described as follows: Antibacterial activity of cationic hydrogel 11, viable count method. It counts as cell-based, Escherichia coli. Conditions: hydrogel 11 at 1% w/v in contact with E. coli. The protocol:
(§1) The antibacterial activity of the anthranilamide-based cationic hydrogels 11-13 and 15-19 was investigated in vitro against S. aureus. The antibacterial activity of anthranilamide-based cationic hydrogel 11 was also investigated in vitro against E. coli.
First, a single colony of S. aureus 38 or E. coli K12 was grown in Luria-Bertani (LB) broth medium at 37° C. overnight. The resulting bacteria were harvested, via centrifugation, to obtain a bacteria pellet which was re-suspended in the same volume of LB medium, twice. The optical density (OD) value of the resulting culture was adjusted to 0.1 at 600 nm in LB (10^8 cfu·mL^−1). This bacteria solution was then further adjusted to 3×10^4 cfu mL^−1. (CFU or cfu=colony-forming unit). Bacteria solutions (1 mL), which contain either 10^8 CFUs/mL or 3×10^4 CFUs/mL, were gently added to hydrogel 11 at 1% w/v with total volume of 1 mL. Anthranilamide-based cationic hydrogels 11-13 and 15-19 (1 mL) were prepared at 1% w/v in glass vials as described above. On top of these pre-formed hydrogels, 1 mL of bacteria solution was carefully cast. […] As a negative control, a bacterial solution in the absence of hydrogel was used. […] The following day, bacterial growth inhibition was quantified using the viable count method. […]

In a further data set the test system is S. aureus 38. Nature of the data set: Antibacterial activity of cationic hydrogels, viable count method. Conditions: hydrogel at 1% w/v in contact with S. aureus, compared to control. It counts as cell-based, Staphylococcus aureus. The method, then:
as §1
First, a single colony of S. aureus 38 or E. coli K12 was grown in Luria-Bertani (LB) broth medium at 37° C. overnight. The resulting bacteria were harvested, via centrifugation, to obtain a bacteria pellet which was re-suspended in the same volume of LB medium, twice. The optical density (OD) value of the resulting culture was adjusted to 0.1 at 600 nm in LB (10^8 cfu·mL^−1). This bacteria solution was then further adjusted to 3×10^4 cfu mL^−1. (CFU or cfu=colony-forming unit). Bacteria solutions (1 mL), which contain either 10^8 CFUs/mL or 3×10^4 CFUs/mL, were gently added to hydrogel 11 at 1% w/v with total volume of 1 mL. Anthranilamide-based cationic hydrogels 11-13 and 15-19 (1 mL) were prepared at 1% w/v in glass vials as described above. On top of these pre-formed hydrogels, 1 mL of bacteria solution was carefully cast. […] As a negative control, a bacterial solution in the absence of hydrogel was used. After being incubated at 37° C. for 18 hours, 100 μL of bacteria solution in each vial was taken and subjected to serial dilution using phosphate buffer solution (PBS). 20 μL of each dilution were carefully transferred into nutrient agar plates and incubated for another 18 hours. The following day, bacterial growth inhibition was quantified using the viable count method. The experiment was performed twice in triplicate and multiple sample comparison was performed using one-way ANOVA at p<0.05.

The nature of data set [3]: Release of cationic short peptide from hydrogel (UV-Vis). It counts as physicochemical. Conditions: hydrogel 1% w/v, PBS, 37° C. The protocol: Hydrogel 11 was made at 1% w/v with a final volume of 1 mL. The resulting hydrogel was left to stand overnight at room temperature. Phosphate buffer solution (PBS, 1 mL) was added gently from the side wall to avoid physical fractures. Subsequently, the vial was incubated at 37° C., where 1 mL of PBS was sampled at each time point and replaced with fresh PBS. Samples were subjected to 10× dilution before analysis using UV-Vis spectroscopy. This experiment was performed in triplicate.

Here are results for two compounds from patent US20230123497A1, “NOVEL ANTIBACTERIAL HYDROGELS” (NewSouth Innovations Pty Limited, priority 2020, published 2023).

Several values for one entry are separate records, joined by “and”; a condition that tells them apart may be missing. Equal values may be shown once.

For `O=C(Nc1ccccc1C(=O)N[C@@H](Cc1ccccc1)C(=O)N[C@@H](Cc1ccccc1)C(=O)O)c1ccc([N+](=O)[O-])c(C(F)(F)F)c1` [Compound 4, (2-(4-Nitro-3-(trifluoromethyl)benzamido)benzoyl)-L-phenylalanyl-L-phenylalanine], the solubility in water entry in “Solubility in water” was “not soluble”. Further, the Log reduction in the data set on E. coli K12 [1] (hydrogel 4 1% w/v, blue light irradiation 1 hour) is given as roughly 3 Log. The “bacterial number after treatment” value with E. coli K12 [1] (hydrogel 4 1% w/v, blue light irradiation 1 hour, from 3×10^4 CFUs) was determined as 34 CFUs. Besides, the “bacterial reduction without light” value in the data set on E. coli K12 [1] (hydrogel 4 without light irradiation) is “no bacterial reduction was observed”.
For `NCCCNC(=O)[C@H](Cc1ccccc1)NC(=O)c1ccccc1NC(=O)c1ccc2ccccc2c1` [Compound 11], the bacteria reduction in the data set on E. coli K12 [2] was 6.4 Log10 and 6.2 Log10. In the data set with S. aureus 38, this compound had a bacterial reduction of 9.0 Log10. Moreover, the “peptide released from hydrogel” value in data set [3] (24 hours) was 0.15 mg/mL and 221 μM. The total peptide released in data set [3] (over 9 days) is roughly 14%.
